# US20080021107A1, “USE OF AMINO ACIDS FOR TREATMENT OF VARIOUS CONDITIONS” (UNIVERSITY OF ROCHESTER, priority 2002, published 2008)
# Assays:
# [1] = test system: hot flashes as a result of the post-partum state; details: L-methionine 1 g bid orally
# [2] = high-dose oral L-methionine; van der Griend et al. 2002; cited from earlier work
# [3] = test system: hot flashes in post-menopausal women; experiment: Oral administration to patients experiencing hot flashes as symptoms of postmenopausal hormone variation; details: for side effects: human, in vivo, po
# From the text: Administration of L-Norleucine to Patients Experiencing Hot Flashes as Symptoms of Postmenopausal Hormone Variation […]
# [4] = test system: palmar hyperhidrosis; details: L-methionine 1 g bid orally
# [5] = Backonja et al. 1998; Rowbotham et al. 1998; cited from earlier work
structure (smiles),measurement,setting,value
CSCC[C@H](N)C(=O)O [L-methionine],side effects,[1],No side effects
same,improvement in hot flash frequency,"[1]; person, 3 severe nighttime and 2 moderate daytime hot flashes per day, after three weeks",100%
same,increase in serum homocysteine levels,[2],10 fold
same,improvement in hot flash frequency,"[3]; Patient No. 1, about 10 hot flashes per day, L-methionine 1 gram tid orally, after three weeks, benefit persisted for 3 months of therapy",90%
same,change in symptoms,"[3]; Patient No. 1, L-methionine 500 mg three times daily for two weeks",without noticing an appreciable change
same,improvement in hot flash frequency,"[3]; Patient No. 2, about 15 hot flashes per day, L-methionine 1 g tid orally, after three weeks, benefit persisted for 5 months of therapy",90%
same,improvement in nighttime hot flash frequency,"[3]; Patient No. 3, about 7 hot flashes per day, L-methionine 500 mg tid orally, after three weeks",66%
same,improvement in both nighttime and daytime hot flash severity,"[3]; Patient No. 3, L-methionine 500 mg tid orally, after three weeks",50%
same,side effects,[3],No side effects
same,side effects,[4],No side effects
same,reduction in the subjective severity of palmar hyperhidrosis,"[4]; person, after 3 weeks",50%
CCCC[C@H](N)C(=O)O [L-norleucine],reduction in hot flashes,"[3]; Example 4 Patient No. 1, 6 hot flashes/day at baseline, oral L-norleucine 1.5 grams 2x/day, starting 10 days after initiating, maintained for 3.5 months",70%
same,reduction in hot flashes,"[3]; Example 4 Patient No. 2, 8 hot flashes/day at baseline, oral L-norleucine 1 gram 2x/day, starting 4 days after initiating, maintained for 1.5 months",87%
same,side effects,[3],No side effects
"NCC1(CC(=O)O)CCCCC1 [gabapentin, Gabapentin, reference compound]",tolerability,"[3]; Example 1 Patient No. 1, gabapentin therapy for several days",unable to tolerate the drug due to severe dizziness
same,patient withdrawal rate due to side effects (most often sleepiness and dizziness),[5],approximately 13%
